Reference: patent US20260216170A1, “TETRAHYDROISOQUINOLINE HETEROBIFUNCTIONAL BCL-XL DEGRADERS” (Treeline Biosciences, Inc., priority 2023, published 2026)

Biological target: T1, Human BCL-XL protein (N-terminal HiBiT tagged BCL-XL expressed in HT1080 cells) (Homo sapiens, UniProt Q07817)
T1 construct: expressed in transfected cells; host or cells: HT-1080 (ATCC CCL-121), stably transduced with lentivirus pLV-UBC-N-HiBiT-BCL-XL-PGK-puro and selected with puromycin
Assay: HiBiT Based Degradation Assay
Assay type: cell-based
Settings: 24 hours incubation; for DC50: BCL-XL degradation, HT1080 cells expressing N-HiBiT-BCL-XL, normalized with DMSO control, geometric mean for multiple data points, read-out: EC50 (24 h); for Ymin (24 h): bottom of BCL-XL degradation curve (remaining HiBiT-BCL-XL signal vs DMSO control), HT1080 cells
From the text: HiBiT Based Degradation Assay
Human BCL-XL protein coding open reading frame fused with N-terminal HiBiT coding sequence (N-HiBiT-BCL-XL) was synthesized from Integrated DNA Technologies (IDT). Next, N-HiBiT-BCL-XL sequence was cloned into pLV-UBC-PGK-Puro, a lentivirus plasmid purchased from Vectorbuilder, to generate pLV-UBC-N-HiBiT-BCL-XL-PGK-puro. Lentiviral particles were generated from Lenti-X™ 293T cells (Clontech) by co-transfection of pLV-UBC-N-HiBiT-BCL-XL-PGK-puro plasmids and lentiviral packaging plasmid mix (Cellecta). HT-1080 [HT1080](ATCC CCL-121™) cells were infected with the lentivirus, and HT1080 cells stably integrated with the lentiviral vector were established by incubation with 1 μg/mL puromycin (Thermofisher). HT1080 cells expressing N-terminal HiBiT tagged BCL-XL were dispensed into 384-well plates pre-spotted with compounds at varying concentrations. Three thousand cells were seeded into each well in 40 μL of RPMI 1640 media. After 24 hours of incubation at 37° C. with 5% CO2, 30 μL of the NANO-GLO® HiBiT Lytic Detection System working solution (Promega) was added to each well and incubated at room temperature for 30 min. After incubation, luminescence was read on a PHERAstar FSX Plate Reader (BMG). BCL-XL degradation at each indicated concentration was normalized with DMSO control. The BCL-XL degradation curves were plotted using a four-parameter logistic model. For compounds displaying hook effects, curve fitting was performed using bottom point of hook curves (i.e., the point of Ymin) as bottom plateau to calculate EC50. For compounds with multiple data points, the geometric mean is presented.

T1 sequence (Q07817 whole entry): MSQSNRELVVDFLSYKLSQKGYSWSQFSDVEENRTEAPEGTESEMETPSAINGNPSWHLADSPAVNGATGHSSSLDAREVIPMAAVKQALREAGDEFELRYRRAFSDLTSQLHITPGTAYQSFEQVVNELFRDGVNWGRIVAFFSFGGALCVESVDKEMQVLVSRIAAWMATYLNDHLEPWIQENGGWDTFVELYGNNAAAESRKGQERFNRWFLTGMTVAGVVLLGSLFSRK

SMILES | DC50 [nM] | Ymin (24 h)
Cn1nc(C2CCC(=O)NC2=O)c2ccc(NC(=O)CN3CCN(CCCO[C@H]4CC[C@H](c5ccc(N6CCc7cccc(C(=O)Nc8nc9ccccc9s8)c7C6)nc5C(=O)O)CC4)CC3)cc21 (some centres unmarked) [Compound 2001a] | < 10 | B (30% ≤ Ymin < 50%)
Cn1nc(C2CCC(=O)NC2=O)c2ccc(NC(=O)CN3CCC4(CC3)CC(COc3cccc(-c5ccc(N6CCc7cccc(C(=O)Nc8nc9ccccc9s8)c7C6)nc5C(=O)O)c3C(F)(F)F)C4)c(F)c21 (centres unmarked) [Compound 185] | 10 to 100 | B (30% ≤ Ymin < 50%)
COc1c(NC(=O)CN2CCC3(CC2)CC(Oc2ccc(-c4ccc(N5CCc6ccnc(C(=O)Nc7nc8ccccc8s7)c6C5)nc4C(=O)O)c(C)c2)C3)ccc2c(C3CCC(=O)NC3=O)nn(C)c12 (centres unmarked) [Compound 187, 6-[8-(1,3-benzothiazol-2-ylcarbamoyl)-3,4-dihydro-1H-2,7-naphthyridin-2-yl]-3-[4-[[7-[2-[[3-(2,6-dioxo-3-piperidyl)-7-methoxy-1-methyl-indazol-6-yl]amino]-2-oxo-ethyl]-7-azaspiro[3.5]nonan-2-yl]oxy]-2-methyl-phenyl]pyridine-2-carboxylic acid] | < 10 | A (Ymin < 30%)
Cc1c(OC2CC3(CCN(CC(=O)Nc4ccc5c(C6CCC(=O)NC6=O)nn(C)c5n4)CC3)C2)cccc1-c1ccc(N2CCc3cccc(C(=O)Nc4nc5ccccc5s4)c3C2)nc1C(=O)O (centres unmarked) [Compound 194, 6-(8-(benzo[d]thiazol-2-ylcarbamoyl)-3,4-dihydroisoquinolin-2(1H)-yl)-3-(3-((7-(2-((3-(2,6-dioxopiperidin-3-yl)-1-methyl-1H-pyrazolo[3,4-b]pyridin-6-yl)amino)-2-oxoethyl)-7-azaspiro[3.5]nonan-2-yl)oxy)-2-methylphenyl)picolinic acid] | < 10 | B (30% ≤ Ymin < 50%)
Cn1nc(C2CCC(=O)NC2=O)c2ccc(NC(=O)CN3CCC4(CC3)CC(COc3ccc(-c5ccc(N6CCc7ccnc(C(=O)Nc8nc9ccccc9s8)c7C6)nc5C(=O)O)c(C(F)(F)F)c3)C4)cc21 (centres unmarked) [Compound 160, 6-[8-(1,3-benzothiazol-2-ylcarbamoyl)-3,4-dihydro-1H-2,7-naphthyridin-2-yl]-3-[4-[[7-[2-[[3-(2,6-dioxo-3-piperidyl)-1-methyl-indazol-6-yl]amino]-2-oxo-ethyl]-7-azaspiro[3.5]nonan-2-yl]methoxy]-2-(trifluoromethyl)phenyl]pyridine-2-carboxylic acid] | < 10 | B (30% ≤ Ymin < 50%)
C[C@@H]1C[C@@H](CCCOc2ccc(-c3ccc(N4CCc5cccc(C(=O)Nc6nc7ccccc7s6)c5C4)nc3C(=O)O)c(C(F)(F)F)c2)CCN1CC(=O)Nc1ccc2c(C3CCC(=O)NC3=O)nn(C)c2c1 (some centres unmarked) [Compound 209d] | < 10 | B (30% ≤ Ymin < 50%)
Cc1c(OC[C@@H]2C[C@H]2CC2CCN(CC(=O)Nc3ccc4c(C5CCC(=O)NC5=O)nn(C)c4c3)CC2)cccc1-c1ccc(N2CCc3cccc(C(=O)Nc4nc5ccccc5s4)c3C2)nc1C(=O)O (single isomer, unassigned) [Compound 1004b] | 10 to 100 | B (30% ≤ Ymin < 50%)
Cn1nc(C2CCC(=O)NC2=O)c2ccc(NC(=O)CN3CCC(CCCOc4ccc(-c5ccc(N6CCc7cccc(C(=O)Nc8nc9ccccc9s8)c7C6)nc5C(=O)O)c(F)c4)CC3)c(F)c21 (centres unmarked) [Compound 212, 6-(8-(benzo[d]thiazol-2-ylcarbamoyl)-3,4-dihydroisoquinolin-2(1H)-yl)-3-(4-(3-(1-(2-((3-(2,6-dioxopiperidin-3-yl)-7-fluoro-1-methyl-1H-indazol-6-yl)amino)-2-oxoethyl)piperidin-4-yl)propoxy)-2-fluorophenyl)picolinic acid] | 10 to 100 | B (30% ≤ Ymin < 50%)
Cn1nc(C2CCC(=O)NC2=O)c2ccc(NC(=O)CN3CCC4(CCC(Oc5ccc(-c6ccc(N7CCc8cccc(C(=O)Nc9nc%10ccccc%10s9)c8C7)nc6C(=O)O)c(C(F)(F)F)c5)CC4)CC3)cc21 (centres unmarked) [Compound 197] | < 10 | B (30% ≤ Ymin < 50%)
COc1c(NC(=O)CN2CC[C@@H](CCCOc3ccc(-c4ccc(N5CCc6cccc(C(=O)Nc7nc8ccccc8s7)c6C5)nc4C(=O)O)c(C)c3)C[C@H]2C)ccc2c(C3CCC(=O)NC3=O)nn(C)c12 (some centres unmarked) [Compound 210d] | 10 to 100 | A (Ymin < 30%)
Cc1c(OCC2CC3(CCN(CCNc4ccc5c(C6CCC(=O)NC6=O)nn(C)c5c4)CC3)C2)cccc1-c1ccc(N2CCc3cccc(C(=O)Nc4nc5ccccc5s4)c3C2)nc1C(=O)O (centres unmarked) [Compound 153, 6-[8-(1,3-benzothiazol-2-ylcarbamoyl)-3,4-dihydro-1H-isoquinolin-2-yl]-3-[3-[[7-[2-[[3-(2,6-dioxo-3-piperidyl)-1-methyl-indazol-6-yl]amino]ethyl]-7-azaspiro[3.5]nonan-2-yl]methoxy]-2-methyl-phenyl]pyridine-2-carboxylic acid] | < 10 | A (Ymin < 30%)
Cc1cc(O[C@H](C)CCC2CCN(CC(=O)Nc3ccc4c(C5CCC(=O)NC5=O)nn(C)c4c3)CC2)ccc1-c1ccc(N2CCc3ccnc(C(=O)Nc4nc5ccccc5s4)c3C2)nc1C(=O)O (single isomer, unassigned) [Compound 133a] | 10 to 100 | B (30% ≤ Ymin < 50%)
Cn1nc(C2CCC(=O)NC2=O)c2ccc(NC(=O)CN3CCC(CCCOc4cccc(-c5ccc(N6CCc7cccc(C(=O)Nc8nc9ccccc9s8)c7C6)nc5C(=O)O)c4F)CC3)c(F)c21 (centres unmarked) [Compound 211] | 10 to 100 | C (50% ≤ Ymin < 70%)
Cc1c(OCCCC2CCN(CC(=O)Nc3ccc4c(C5CCC(=O)NC5=O)nn(C)c4c3)CC2)cccc1-c1ccc(N2CCc3ccnc(C(=O)Nc4nc5ccccc5s4)c3C2)nc1C(=O)O (centres unmarked) [Compound 106, 6-(8-(benzo[d]thiazol-2-ylcarbamoyl)-3,4-dihydro-2,7-naphthyridin-2(1H)-yl)-3-(3-(3-(1-(2-((3-(2,6-dioxopiperidin-3-yl)-1-methyl-1H-indazol-6-yl)amino)-2-oxoethyl)piperidin-4-yl)propoxy)-2-methylphenyl)picolinic acid] | 10 to 100 | B (30% ≤ Ymin < 50%)
Cc1c(OC2CC3(CCN(CC(=O)Nc4ccc5c(C6CCC(=O)NC6=O)nn(C)c5n4)CC3)C2)cccc1-c1ccc(N2CCc3ccnc(C(=O)Nc4nc5ccccc5s4)c3C2)nc1C(=O)O (centres unmarked) [Compound 207, 6-[8-(1,3-benzothiazol-2-ylcarbamoyl)-3,4-dihydro-1H-2,7-naphthyridin-2-yl]-3-[3-[[7-[2-[[3-(2,6-dioxo-3-piperidyl)-1-methyl-pyrazolo[3,4-b]pyridin-6-yl]amino]-2-oxo-ethyl]-7-azaspiro[3.5]nonan-2-yl]oxy]-2-methyl-phenyl]pyridine-2-carboxylic acid] | < 10 | B (30% ≤ Ymin < 50%)
Cn1nc(C2CCC(=O)NC2=O)c2ccc(NC(=O)CN3CCC4(CC3)CC(Oc3ccc(-c5ccc(N6CCc7cccc(C(=O)Nc8nc9ccccc9s8)c7C6)nc5C(=O)O)c(C(F)(F)F)c3)C4)nc21 (centres unmarked) [Compound 193] | 10 to 100 | B (30% ≤ Ymin < 50%)
Cn1nc(C2CCC(=O)NC2=O)c2ccc(NC(=O)CN3CCC(CCCOc4ccc(-c5ccc(N6CCc7cccc(C(=O)Nc8nc9ccccc9s8)c7C6)nc5C(=O)O)c(C(F)(F)F)c4)CC3)cc21 (centres unmarked) [Compound 129, 6-(8-(benzo[d]thiazol-2-ylcarbamoyl)-3,4-dihydroisoquinolin-2(1H)-yl)-3-(4-(3-(1-(2-((3-(2,6-dioxopiperidin-3-yl)-1-methyl-1H-indazol-6-yl)amino)-2-oxoethyl)piperidin-4-yl)propoxy)-2-(trifluoromethyl)phenyl)picolinic acid] | < 10 | B (30% ≤ Ymin < 50%)
Cn1nc(C2CCC(=O)NC2=O)c2ccc(NC(=O)CN3CCC(CCCOc4ccc(-c5ccc(N6CCc7ccnc(C(=O)Nc8nc9ccccc9s8)c7C6)nc5C(=O)O)c(C(F)(F)F)c4)CC3)cc21 (centres unmarked) [Compound 157, 6-[8-(1,3-benzothiazol-2-ylcarbamoyl)-3,4-dihydro-1H-2,7-naphthyridin-2-yl]-3-[4-[3-[1-[2-[[3-(2,6-dioxo-3-piperidyl)-1-methyl-indazol-6-yl]amino]-2-oxo-ethyl]-4-piperidyl]propoxy]-2-(trifluoromethyl)phenyl]pyridine-2-carboxylic acid] | 10 to 100 | A (Ymin < 30%)
Cc1cc(OC2CC3(CCN(CC(=O)Nc4ccc5c(C6CCC(=O)NC6=O)nn(C)c5n4)CC3)C2)ccc1-c1ccc(N2CCc3ccnc(C(=O)Nc4nc5ccccc5s4)c3C2)nc1C(=O)O (centres unmarked) [Compound 213] | < 10 | A (Ymin < 30%)
